Test results from US6362341B1, “Benzyl compounds which inhibit leukocyte adhesion mediated by VLA-4” (Athena Neurosciences, Inc., priority 1997, dated 2002).
Non-standard residues stand in square brackets, D forms with d. Residues, ends and D or L forms follow the SMILES beside them. *: point of attachment. Tos = Cc1ccc(S(=O)(=O)*)cc1; Thz = O=C(O)[C@@H]1CSCN1

Columns and labels:
[1] = test system: Experimental Autoimmune Encephalomyelitis (EAE) model, motor impairment; assay: In vivo evaluation - Experimental Autoimmune Encephalomyelitis (EAE); design: species or system Lewis rats or Hartley guinea pigs; details: active = delayed onset of symptoms, e.g. clinical scores no greater than 2 or slowed body weight loss as compared to the control; treatment from Day 8, bid, five days

melting point [°C] | SMILES | activity in EAE model (delay of onset of symptoms) [1]
91 to 95 | Cc1ccc(S(=O)(=O)N2CCC[C@H]2C(=O)NC(Cc2ccccc2)C(=O)NCCC(=O)O)cc1 (mixture of isomers) [Example 45, N-(Toluene-4-sulfonyl)-L-prolyl-D,L-phenylalanyl-β-alanine] | –
153 to 163 | Cc1ccc(S(=O)(=O)N2CCC[C@H]2C(=O)NC(Cc2nc[nH]n2)C(=O)O)cc1 (mixture of isomers) [Example 66, N-(Toluene-4-sulfonyl)-L-prolyl-D,L-β-(1,2,4-triazol-3-yl)alanine] | –
70 to 80 | O=C(O)[C@H](Cc1ccccc1)NC(=O)[C@@H]1CCCN1S(=O)(=O)c1ccc([N+](=O)[O-])cc1 [Example 27, N-(4-Nitrobenzenesulfonyl)-L-prolyl-L-phenylalanine] | –
127 to 130 | Cc1ccc(S(=O)(=O)N2CCC[C@H]2C(=O)N[C@@H](Cc2ccccc2)C(=O)NOCc2ccccc2)cc1 [Example 43, N-(Toluene-4-sulfonyl)-L-prolyl-L-phenylalanine N-Benzyloxyamide] | –

More lines, now with the values behind:

SMILES | melting point [°C] | activity in EAE model (delay of onset of symptoms) [1]
Cc1ccc(S(=O)(=O)N2CCC[C@H]2C(=O)N[C@@H](Cc2ccccc2)C(=O)O)cc1 [Example 3, N-(Toluene-4-sulfonyl)-L-prolyl-L-phenylalanine] (Tos-Pro-Phe-OH) | – | active
O=C(O)[C@H](Cc1ccccc1)NC(=O)[C@@H]1CCCN1S(=O)(=O)c1ccc(Cl)cc1 [Example 10, N-(4-Chlorobenzenesulfonyl)-L-prolyl-L-phenylalanine] | 69 to 71 | –
COC(=O)c1ccccc1S(=O)(=O)N1CCC[C@H]1C(=O)N[C@@H](Cc1ccccc1)C(=O)O [Example 18, N-(2-Methoxycarbonylbenzenesulfonyl)-L-prolyl-L-phenylalanine] | 163 to 165 | –
Cc1ccc(S(=O)(=O)N2CSC[C@H]2C(=O)N[C@@H](Cc2ccccc2)C(=O)O)cc1 [Example 20, N-(Toluene-4-sulfonyl)-L-thiaprolyl-L-phenylalanine] (Tos-[Thz]-Phe-OH) | 60 to 65 | –
